Reference: PMC6054517, “Design and synthesis of novel oridonin analogues as potent anticancer agents” (Journal of Enzyme Inhibition and Medicinal Chemistry, 2018)
Where two headings read alike, the source gives them in different places.

Key:
A549 cells = settings: cited from earlier work
AGS = test: MTT antiproliferative assay, AGS cells; type: cell-based, human; settings: for IC50: 48 h, MTT, means ± SD, n = 3
Text: (§1) Human gastric cancer (AGS), human differentiation of advanced gastric cancer (MGC803), human colorectal cancer (HCT116), human lung cancer (A549), human hepatocellular carcinoma (Bel7402) and human cervical cancer (HeLa) cell lines were obtained from the State Key Laboratory of Natural Resources and Functional Molecules of the Changbai Mountain (Yanbian University) and maintained in Dulbecco’s modified Eagle’s medium and RPMI Media 1640 (RPMI1640), supplemented with 10% foetal bovine serum 100 IU/ml penicillin, […] and 2 mmol/l L-glutamine (Sigma) at 37 °7 in a humidified atmosphere containing 5% CO2.
(§2) All six human cancer cell lines and normal L02 cells were seeded in 96-well plates at the appropriate densities to ensure exponential growth throughout the experimental period (9 × 10^3 cells per well) and then allowed to adhere for 24 h. The cells were then treated for 48 h with four serial dilutions (100, 50, 10, and 1 µM) of each compound. 5-Fluorouracil (5-FU) was used as the positive control. After incubation for 48 h, 10 µl MTT solution was added to each well to give a final concentration of 2 mg ml^−1. The plates were then incubated for further 4 h. After incubation, the MTT solution was removed and 150 µl DMSO was added to each well to solubilise the formed product. To ensure complete solubilisation, the plates were shaken vigorously for 10 min at room temperature. The optometric density (OD) was read on a microplate reader (ELx800, BioTek, Highland Park, Winooski, VT) at a wavelength of 492 nm and the data were subsequently analysed. The percentage of cell growth inhibition was calculated from the following equation: inhibitory rate (%) = [1–(ODtreated–ODblank)/(ODcontrol–ODblank)] × 100.
(§3) The MTT assay was performed using a standard protocol.

MGC803 = test: MTT antiproliferative assay, MGC803 cells; type: cell-based, human; settings: for IC50: Homo sapiens, MGC-803, MTT, 48 h, means ± SD, n = 3
Text: as §1, §2, §3

Bel7402 = test: MTT antiproliferative assay, Bel7402 cells; type: cell-based, human; settings: for IC50: Homo sapiens, Bel-7402, MTT, 48 h, means ± SD, n = 3
Text: as §1, §2, §3

HCT116 = test: MTT antiproliferative assay, HCT116 cells; type: cell-based, human; settings: for IC50: Homo sapiens, HCT-116, 48 h, MTT, 48 h, means ± SD, n = 3
Text: as §1, §2, §3

A549 = test: MTT antiproliferative assay, A549 cells; type: cell-based, human; settings: for IC50: Homo sapiens, A549, MTT, 48 h, means ± SD, n = 3
Text: as §1, §2, §3

Hela = test: MTT antiproliferative assay, HeLa cells; type: cell-based, human; settings: Homo sapiens, HeLa; MTT, 48 h, means ± SD, n = 3
Text: as §1, §2, §3

[1] = tested on: AGS, MGC803, Bel7402, HCT116, A549, and HeLa; test: MTT assay, overall statement on six tumour cell lines; type: cell-based, human; settings: six cancer cell lines
Text: as §1, §2, §3

L02 = test: MTT assay on normal cell line L02; type: cell-based; settings: normal human liver cell line L02, MTT, 48 h
Protocol: as §2, with “5-Fluorouracil (5-FU) was used as the positive control.” left out
Lack of selective cytotoxicity is the main factor that restricts the dose of most conventional chemotherapeutic agents. […] Selectivity indexes between cancer cells and L-02 cells were calculated.

| IC50 (AGS; Homo sapiens, AGS) | IC50 (MGC803) | IC50 (Bel7402) | IC50 (HCT116) | IC50 (A549) | IC50 (Hela) | IC50 (AGS) | SMILES | IC50 (A549 cells; A549) | antiproliferative activities against the six tumour cell lines (in words) [1] | Selectivity index AGS (AGS; IC50 on normal cells (L02)/IC50 on tumour cells (AGS)) | Selectivity index MGC803 (MGC803; IC50 on normal cells (L02)/IC50 on tumour cells (MGC803)) | Selectivity index Bel7402 (Bel7402; IC50 on normal cells (L02)/IC50 on tumour cells (Bel7402)) | Selectivity index HCT116 (HCT116; IC50 on normal cells (L02)/IC50 on tumour cells (HCT116)) | Selectivity index A549 (A549; IC50 on normal cells (L02)/IC50 on tumour cells (A549)) | IC50 (L02) | IC50 (A549 cells; A549 cells) |
| --- | --- | --- | --- | --- | --- | --- | --- | --- | --- | --- | --- | --- | --- | --- | --- | --- |
| – | 3.49 ± 0.44 µM | 2.41 ± 0.37 µM | 2.28 ± 0.54 µM | 5.12 ± 0.49 µM | 14.3 ± 2.04 µM | 5.85 ± 1.55 µM | COc1ccc(C=C2C(=O)C34C(O)C2CCC3C23COC4(O)C(O)C2C(C)(C)CCC3O)c(OC)c1 [Compound 2l, (1S,4aR,5S,6S,6aR,9S,11aS,14R,E)-8-(2,4-dimethoxybenzylidene)-1,5,6,14-tetrahydroxy-4,4-dimethyldecahydro-1H-6,11b-(epoxymethano)-6a,9-methanocyclohe-pta[a]naphthalen-7(8H)-one] | – | more potent antiproliferative activities in vitro than oridonin | 1.22 | 2.05 | 2.97 | 3.14 | 1.40 | 7.15 ± 1.36 µM | – |
| 30.3 ± 2.24 µM | 32.9 ± 2.31 µM | 60.3 ± 4.14 µM | 28.2 ± 2.67 µM | > 100 µM | > 100 µM | – | CC1(C)CC[C@H](O)C23CO[C@](O)([C@@H](O)[C@H]12)[C@]12C(=O)/C(=C/c4ccccc4O)[C@H](CC[C@@H]31)[C@H]2O [Compound 2v, (1S,4aR,5S,6S,6aR,9S,11aS,14R,E)-1,5,6,14-tetrahydroxy-8-(2-hydroxybenzylidene)-4,4-dimethyldecahydro-1H-6,11b-(epoxymethano)-6a,9-methanocyclohepta[a]naphthalen-7(8H)-one] | – | poor antiproliferative activities | – | – | – | – | – | – | – |
| 17.3 ± 2.41 µM | 28 ± 1.73 µM | 14.6 ± 1.21 µM | 18.6 ± 1.78 µM | 15.8 ± 1.47 µM | 8.89 ± 0.94 µM | – | COc1cc(/C=C2/C(=O)[C@]34[C@H](O)[C@H]2CC[C@H]3C23CO[C@]4(O)[C@@H](O)[C@@H]2C(C)(C)CC[C@@H]3O)cc(OC)c1OC [Compound 2n, (1S,4aR,5S,6S,6aR,9S,11aS,14R,E)-1,5,6,14-tetrahydroxy-4,4-dimethyl-8-(3,4,5-trimethoxybenzylidene)decahydro-1H-6,11b-(epoxymethano)-6a,9-methanocyclo-hepta[a]naphthalen-7(8H)-one] | – | – | – | – | – | – | – | – | – |
| 10.8 ± 2.39 µM | 17.7 ± 1.13 µM | 24.2 ± 2.27 µM | 14.2 ± 1.31 µM | 66.9 ± 5.29 µM | 22.3 ± 1.92 µM | – | Cc1cccc(/C=C2/C(=O)[C@]34[C@H](O)[C@H]2CC[C@H]3C23CO[C@]4(O)[C@@H](O)[C@@H]2C(C)(C)CC[C@@H]3O)c1 [Compound 2g, (1S,4aR,5S,6S,6aR,9S,11aS,14R,E)-1,5,6,14-tetrahydroxy-4,4-dimethyl-8-(3-methylbenzylidene)decahydro-1H-6,11b-(epoxymethano)-6a,9-methanocyclohepta[a]naphthalen-7(8H)-one] | – | – | – | – | – | – | – | – | – |

The next lines start with the compound.

| SMILES | IC50 (AGS; Homo sapiens, AGS) | IC50 (MGC803) | IC50 (Bel7402) | IC50 (HCT116) | IC50 (A549) | IC50 (Hela) | IC50 (AGS) | IC50 (A549 cells; A549) | antiproliferative activities against the six tumour cell lines (in words) [1] | Selectivity index AGS (AGS; IC50 on normal cells (L02)/IC50 on tumour cells (AGS)) | Selectivity index MGC803 (MGC803; IC50 on normal cells (L02)/IC50 on tumour cells (MGC803)) | Selectivity index Bel7402 (Bel7402; IC50 on normal cells (L02)/IC50 on tumour cells (Bel7402)) | Selectivity index HCT116 (HCT116; IC50 on normal cells (L02)/IC50 on tumour cells (HCT116)) | Selectivity index A549 (A549; IC50 on normal cells (L02)/IC50 on tumour cells (A549)) | IC50 (L02) | IC50 (A549 cells; A549 cells) |
| --- | --- | --- | --- | --- | --- | --- | --- | --- | --- | --- | --- | --- | --- | --- | --- | --- |
| CCOc1cccc2c1OC(C(=O)/C=C/c1ccc(N(C)C)cc1)C2 (stereo not drawn) [Compound 5] | – | – | – | – | – | – | – | 9 µM | – | – | – | – | – | – | – | – |
| CC1(C)CC[C@H](O)C23CO[C@](O)([C@@H](O)[C@H]12)[C@]12C(=O)/C(=C/c4cccc(O)c4)[C@H](CC[C@@H]31)[C@H]2O [Compound 2w, (1S,4aR,5S,6S,6aR,9S,11aS,14R,E)-1,5,6,14-tetrahydroxy-8-(3-hydroxybenzylidene)-4,4-dimethyldecahydro-1H-6,11b-(epoxymethano)-6a,9-methanocyclohepta[a]naphthalen-7(8H)-one] | > 100 µM | > 100 µM | > 100 µM | 22.1 ± 3.28 µM | > 100 µM | > 100 µM | – | – | poor antiproliferative activities | – | – | – | – | – | – | – |
| CC(=O)Nc1ccc(/C=C2/C(=O)[C@]34[C@H](O)[C@H]2CC[C@H]3C23CO[C@]4(O)[C@@H](O)[C@@H]2C(C)(C)CC[C@@H]3O)cc1 [Compound 2t, N-(4-((E)-((1S,4aR,5S,6S,6aR,9S,11aS,14R)-1,5,6,14-tetrahydroxy-4,4-dimethyl-7-oxodecahydro-1H-6,11b-(epoxymethano)-6a,9-methanocyclohepta[a]naphthalen-8(7H)-ylidene)methyl)phenyl)acetamide] | 22.1 ± 1.04 µM | 10 ± 0.84 µM | 14.6 ± 1.66 µM | 47.9 ± 3.91 µM | 97.1 ± 5.93 µM | > 100 µM | – | – | poor antiproliferative activities | – | – | – | – | – | – | – |
| CC1(C)CC[C@H](O)C23CO[C@](O)([C@@H](O)[C@H]12)[C@]12C(=O)/C(=C/c4ccc(NC(=O)c5ccccc5)cc4)[C@H](CC[C@@H]31)[C@H]2O [Compound 2u, N-(4-((E)-((1S,4aR,5S,6S,6aR,9S,11aS,14R)-1,5,6,14-tetrahydroxy-4,4-dimethyl-7-oxodecahydro-1H-6,11b-(epoxymethano)-6a,9-methanocyclohepta[a]naphthalen-8(7H)-ylidene)methyl)phenyl)benzamide] | 12 ± 1.99 µM | 12.2 ± 0.94 µM | 7.35 ± 1.28 µM | 4.02 ± 0.33 µM | 21.5 ± 1.88 µM | 9.79 ± 1.08 µM | – | – | – | – | – | – | – | – | – | – |
| O=c1[nH]cc(F)c(=O)[nH]1 [Compound 5-FU, 5-Fluorouracil, reference compound] | 29.6 ± 3.4 µM | 30.5 ± 4.42 µM | 21.3 ± 2.43 µM | 24.8 ± 2.08 µM | 23.7 ± 3.14 µM | 34.6 ± 3.14 µM | – | – | – | – | – | – | – | – | – | – |
| CC1(C)CC[C@H](O)C23CO[C@](O)([C@@H](O)[C@H]12)[C@]12C(=O)/C(=C/c4ccc(N)cc4)[C@H](CC[C@@H]31)[C@H]2O [Compound 2s, (1S,4aR,5S,6S,6aR,9S,11aS,14R,E)-8-(4-aminobenzylidene)-1,5,6,14-tetrahydroxy-4,4-dimethyldecahydro-1H-6,11b-(epoxymethano)-6a,9-methanocyclohepta[a]-naphthalen-7(8H)-one] | 51 ± 3.34 µM | 53.2 ± 4.05 µM | 7 ± 1.05 µM | 10 ± 1.13 µM | 99.8 ± 7.45 µM | > 100 µM | – | – | poor antiproliferative activities | – | – | – | – | – | – | – |
| Cc1ccc(/C=C2/C(=O)[C@]34[C@H](O)[C@H]2CC[C@H]3C23CO[C@]4(O)[C@@H](O)[C@@H]2C(C)(C)CC[C@@H]3O)cc1 [Compound 2h, (1S,4aR,5S,6S,6aR,9S,11aS,14R,E)-1,5,6,14-tetrahydroxy-4,4-dimethyl-8-(4-methylbenzylidene)decahydro-1H-6,11b-(epoxymethano)-6a,9-methanocyclohepta[a]naphthalen-7(8H)-one] | 5.26 ± 1.09 µM | 27.2 ± 2.38 µM | 11.3 ± 0.98 µM | 10.1 ± 1.39 µM | 18 ± 1.49 µM | 28.7 ± 2.13 µM | – | – | – | – | – | – | – | – | – | – |
| C=C1C(=O)O[C@@H]2/C=C(\C)CC/C=C(\C)CC[C@@H]12 [Costunolide] | – | – | – | – | – | – | – | – | – | – | – | – | – | – | – | 39.8 µM |
| CC1(C)CC[C@H](O)C23CO[C@](O)([C@@H](O)[C@H]12)[C@]12C(=O)/C(=C/c4ccc(O)cc4)[C@H](CC[C@@H]31)[C@H]2O [Compound 2x, (1S,4aR,5S,6S,6aR,9S,11aS,14R,E)-1,5,6,14-tetrahydroxy-8-(4-hydroxybenzylidene)-4,4-dimethyldecahydro-1H-6,11b-(epoxymethano)-6a,9-methanocyclohepta[a]naphthalen-7(8H)-one] | > 100 µM | > 100 µM | > 100 µM | 30.1 ± 3.57 µM | > 100 µM | > 100 µM | – | – | poor antiproliferative activities | – | – | – | – | – | – | – |
| C/C1=C\[C@H]2OC(=O)/C(=C/c3ccc(Cl)cc3)[C@@H]2CC/C(C)=C/CC1 [Compound 3] | – | – | – | – | – | – | – | – | – | – | – | – | – | – | – | 15.7 µM |
